Results on eleven compounds are retold here after patent publication US8962630B2, “Pyrrolopyrimidine compounds and their uses” (Novartis AG, priority 2008, dated 2015).

Read-outs that look alike come from different tables or passages of the source.

Assay [1] concerns the target CDK1/cyclin B (Homo sapiens (Human), UniProt P06493). The experiment in a line: CDK1/Cyclin B enzymatic activity assay (IMAP-FP). Format: biochemical. The source says:
A 384-well microtiter IMAP-FPT™ (Molecular Devices Trade Mark Technology) endpoint assay was used for CDK1/cyclin B kinase activity measurements. The same assay was used for IC50 determination of small molecule inhibitors.

Assay [2] deals with CDK2/cyclin A (Homo sapiens (Human), UniProt P24941). The experiment in a line: CDK2/Cyclin A enzymatic activity assay (IMAP-FP). Format: biochemical.
Assay [3] addresses CDK4/cyclin D1 (Homo sapiens (Human), UniProt P11802). The experiment in a line: CDK4/Cyclin D1 enzymatic activity assay (Lance TR-FRET). It is filed as biochemical. A digest of the protocol:
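Recombinant His6-CDK4/GST-cyclin D1 (Sf21-expressed), 0.3 nM, phosphorylated 175 nM pRb152 with 3 μM ATP in HEPES pH 7.5, Mg/Mn buffer, 2% DMSO, 60 min at room temperature. Compound range 0.005-10 μM. EDTA-quenched; pRb S780 phosphorylation read by TR-FRET (Eu anti-rabbit/APC-streptavidin) for IC50.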

For assay [4], the system named is pRb negative cells. In words: cell proliferation of pRb negative cells. It is filed as cell-based. To be noted: high concentrations.
In assay [5] the test system is cell cycle. In words: cell cycle analysis. It is filed as cell-based. To be noted: up to 10 uM.
The mark [6] stands for this setting: Table 2, 20 μM ATP, read-out: CDK1.
Where [7] appears, read: Table 2, 3 μM ATP, read-out: CDK4.
Where [8] appears, read: Table 4, read-out: IC50 (μM) CDK1.
[9] abbreviates: Table 4, read-out: IC50 (μM) CDK2.
Where [10] appears, read: Table 4, read-out: IC50 (μM) CDK4.

Chain of CDK1/cyclin B (P06493 whole entry, species assumed): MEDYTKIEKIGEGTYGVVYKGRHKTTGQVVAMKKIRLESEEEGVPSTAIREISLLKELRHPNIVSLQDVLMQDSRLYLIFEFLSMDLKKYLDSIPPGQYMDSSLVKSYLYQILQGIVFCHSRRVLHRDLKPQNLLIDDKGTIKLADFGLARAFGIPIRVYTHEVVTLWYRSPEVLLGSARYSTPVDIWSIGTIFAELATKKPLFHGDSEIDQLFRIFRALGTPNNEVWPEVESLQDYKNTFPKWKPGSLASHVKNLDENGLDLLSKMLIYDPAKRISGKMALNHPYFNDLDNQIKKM
Chain of CDK1/cyclin B (P14635 whole entry partner, species assumed): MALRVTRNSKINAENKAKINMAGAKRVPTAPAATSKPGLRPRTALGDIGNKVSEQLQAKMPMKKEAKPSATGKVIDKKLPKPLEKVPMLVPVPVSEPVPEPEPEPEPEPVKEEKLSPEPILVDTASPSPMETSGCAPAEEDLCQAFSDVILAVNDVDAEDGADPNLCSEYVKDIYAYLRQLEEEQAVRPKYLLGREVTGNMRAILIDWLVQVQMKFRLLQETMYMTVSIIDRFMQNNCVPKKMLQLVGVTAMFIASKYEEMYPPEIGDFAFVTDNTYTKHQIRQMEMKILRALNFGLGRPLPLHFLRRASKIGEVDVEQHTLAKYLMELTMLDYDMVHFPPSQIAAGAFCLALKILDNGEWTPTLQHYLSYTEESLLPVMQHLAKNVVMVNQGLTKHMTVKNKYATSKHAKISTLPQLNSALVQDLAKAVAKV
Chain of CDK4/cyclin D1 (P11802 whole entry): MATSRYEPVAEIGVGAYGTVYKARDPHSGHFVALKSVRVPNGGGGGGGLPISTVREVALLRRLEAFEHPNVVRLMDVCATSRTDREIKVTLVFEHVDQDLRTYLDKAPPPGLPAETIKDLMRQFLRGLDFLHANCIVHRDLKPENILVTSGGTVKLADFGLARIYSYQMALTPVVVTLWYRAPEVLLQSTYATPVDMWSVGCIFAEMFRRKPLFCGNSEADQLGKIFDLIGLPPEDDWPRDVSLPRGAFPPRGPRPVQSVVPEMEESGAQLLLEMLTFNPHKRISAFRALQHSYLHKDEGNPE
Chain of CDK4/cyclin D1 (P24385 whole entry partner): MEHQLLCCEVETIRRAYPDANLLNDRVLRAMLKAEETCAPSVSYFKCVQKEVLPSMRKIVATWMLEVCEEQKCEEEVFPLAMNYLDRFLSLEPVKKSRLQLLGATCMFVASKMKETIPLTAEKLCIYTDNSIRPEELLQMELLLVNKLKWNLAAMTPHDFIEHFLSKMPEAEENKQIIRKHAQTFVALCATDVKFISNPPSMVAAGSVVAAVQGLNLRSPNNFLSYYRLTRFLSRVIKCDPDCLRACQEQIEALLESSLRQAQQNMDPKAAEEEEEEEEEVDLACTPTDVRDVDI

In the case of `CN(C)C(=O)c1cc2cnc(Nc3ccc(N4CCN(C(=O)N5CCCCC5)CC4)cn3)nc2n1C1CCCC1` [Example 94, 7-Cyclopentyl-2-{5-[4-(piperidine-1-carbonyl)-piperazin-1-yl]-pyridin-2-ylamino}-7H-pyrrolo[2,3-d]pyrimidine-6-carboxylic acid dimethylamide], the IC50 in assay [1] (setting [6]) was over 15 µM; in assay [2] (Table 2, read-out: CDK2) it was over 15 µM; in assay [3] (setting [7]), 0.01 to 0.1 µM.
Consider `CC(C)OCCN1CCN(c2ccc(Nc3ncc4cc(C(=O)N(C)C)n(C5CCCC5)c4n3)nc2)CC1` [Example 95, 7-Cyclopentyl-2-{5-[4-(2-isopropoxy-ethyl)-piperazin-1-yl]-pyridin-2-ylamino}-7H-pyrrolo[2,3-d]pyrimidine-6-carboxylic acid dimethylamide], for which the IC50 in assay [1] (setting [6]) is over 15 µM; in assay [2] (Table 2, read-out: CDK2), over 15 µM; in assay [3] (setting [7]), 0.01 to 0.1 µM.
In the case of `CN(C)C(=O)c1cc2cnc(Nc3ccc(C(=O)N4CCN(CCO)CC4)cn3)nc2n1C1CCCC1` [Example 96, 7-Cyclopentyl-2-{5-[4-(2-hydroxy-ethyl)-piperazine-1-carbonyl]-pyridin-2-ylamino}-7H-pyrrolo[2,3-d]pyrimidine-6-carboxylic acid dimethylamide], the IC50 in assay [1] (setting [6]) is over 15 µM; in assay [2] (Table 2, read-out: CDK2), over 15 µM; in assay [3] (setting [7]), 0.01 to 0.1 µM.
Take `CCC(C)CN1CCN(c2ccc(Nc3ncc4cc(C(=O)N(C)C)n(C5CCCC5)c4n3)nc2)CC1` (centres unmarked) [Example 99, 7-Cyclopentyl-2-{5-[4-(2-methyl-butyl)-piperazin-1-yl]-pyridin-2-ylamino}-7H-pyrrolo[2,3-d]pyrimidine-6-carboxylic acid dimethylamide]: the IC50 in assay [1] (setting [6]) was over 15 µM; in assay [2] (Table 2, read-out: CDK2), over 15 µM; in assay [3] (setting [7]) it was 0.01 to 0.1 µM.
`CN(C)C(=O)c1cc2cnc(Nc3ccc(C4CCN(CCO)CC4)cn3)nc2n1C1CCCC1` [Example 100, 7-Cyclopentyl-2-[1′-(2-hydroxy-ethyl)-1′,2′,3′,4′,5′,6′-hexahydro-[3,4]bipyridinyl-6-ylamino]-7H-pyrrolo[2,3-d]pyrimidine-6-carboxylic acid dimethylamide]: the IC50 in assay [1] (setting [6]) was over 15 µM; in assay [2] (Table 2, read-out: CDK2), over 15 µM; in assay [3] (setting [7]), 0.01 to 0.1 µM.
For the compound `COC(=O)C(C)N1CCN(c2ccc(Nc3ncc4cc(C(=O)N(C)C)n(C5CCCC5)c4n3)nc2)CC1` (centres unmarked) [Example 101, 2-{4-[6-(7-Cyclopentyl-6-dimethylcarbamoyl-7H-pyrrolo[2,3-d]pyrimidin-2-ylamino)-pyridin-3-yl]-piperazin-1-yl}-propionic acid methyl ester], the IC50 was over 15 µM in assay [1] (setting [6]); over 15 µM in assay [2] (Table 2, read-out: CDK2); 0.1 to 1 µM in assay [3] (setting [7]).
Take `CC(C(=O)O)N1CCN(c2ccc(Nc3ncc4cc(C(=O)N(C)C)n(C5CCCC5)c4n3)nc2)CC1` (centres unmarked) [Example 103, 2-{4-[6-(7-Cyclopentyl-6-dimethylcarbamoyl-7H-pyrrolo[2,3-d]pyrimidin-2-ylamino)-pyridin-3-yl]-piperazin-1-yl}-propionic acid]: the IC50 in assay [1] (setting [6]) was over 15 µM; in assay [2] (Table 2, read-out: CDK2), over 15 µM; in assay [3] (setting [7]), 0.01 to 0.1 µM.
With `CN(C)C(=O)c1cc2cnc(Nc3ccc(N4CCOCC4)cn3)nc2n1C1CCCC1` [Example 110, 7-Cyclopentyl-2-(5-morpholin-4-yl-pyridin-2-ylamino)-7H-pyrrolo[2,3-d]pyrimidine-6-carboxylic acid dimethylamide], the IC50 is over 15 µM in assay [1] (setting [6]); over 15 µM in assay [2] (Table 2, read-out: CDK2); 0.1 to 1 µM in assay [3] (setting [7]).
With `CN(C)C(=O)c1cc2cnc(Nc3ccc(N4CCNCC4)cc3)nc2n1C1CCCC1` [Example 200, reference compound], the IC50 in assay [1] (setting [8]) is over 1.6 µM; in assay [2] (setting [9]), over 1.4 µM; in assay [3] (setting [10]), 0.005 µM. The “inhibition of cell proliferation of pRb negative cells” value in assay [4] is “does inhibit the cell proliferation of pRb negative cells at high concentrations”. Moreover, in assay [5], the “cell cycle arrest phase” value was “starts to induce G2/M phase blocks at 1 and 10 uM concentrations”.
`O=C(c1cc2cnc(Nc3ccc(N4CCNCC4)cc3)nc2n1C1CCCC1)N1CCC1` [Example 201, reference compound]: the IC50 is 7.5 µM in assay [1] (setting [8]), 10.3 µM in assay [2] (setting [9]) and 0.11 µM in assay [3] (setting [10]).
Taken in the same sequence, the figures for `Cc1c(C(=O)N(C)C)n(C2CCCC2)c2nc(Nc3ccc(N4CCNCC4)cn3)ncc12` [Example 202, reference compound] were over 15 µM, over 15 µM and 2.5 µM.
